The subject of assay [1] is Human Ovary Adenocarcinoma SKOV-3 Cell Line. Nature of the assay: Cytotoxicity (cell growth inhibition, trypan blue exclusion count) in SKOV-3 cultures. The settings on record: for docetaxel-doxorubicin mixtures based on the sum of amounts of cytostatica. As for the experimental part:
MDA-MB-231 cells were propagated in MEM culture medium with 2 mM L-glutamine, 10% fetal bovine serum (FBS) and antibiotics. SKOV-3 cells were cultured in McCoy's 5A culture medium, supplemented with 1.5 mM L-glutamine, 10% FBS and antibiotics. […] Cell propagation of all lines was carried out in BD Falcon™ 25 or 75 cm^2 cultivation flasks (Becton Dickinson Labware). A549 cells were cultured in Ham's F-12 culture medium with 1 mM L-glutamine, 10% FBS and antibiotics. Cell propagation of all lines was carried out in BD Falcon™ 25 or 75 cm^2 cultivation flasks.
These plates were seeded by cells at 8×10^3 cells/well for MDA-MB-231, at 10×10^3 cells/well for SKOV-3 or at 6×10^3 cells/well for A549 in a volume of 200 μl/well. Both flasks and cultivation plates were incubated for cell growth at 37° C. in a humidified atmosphere of 95% air and 5% CO2.
On day 1 after cell seeding 4 μL solutions of the formulations to be tested with different concentrations in appropriate solvents were added to wells with cultures (dose—response experiments). […] The cells were incubated within 2-4 consecutive days.
EF was calculated versus ADRIAMYCIN®. IC50 for the docetaxel-doxorubicin mixtures is based on the sum of amounts of cytostatica.
(§1) IC50 were based on concentration of doxorubicin. Enhancement factors were calculated versus doxorubicin.

Assay [2] has as its system Human Lung Non-Small Cancer Cell Line A549. Nature of the assay: Cytotoxicity (cell growth inhibition, trypan blue exclusion count) in A549 cultures. The settings on record: based on concentration of doxorubicin. As to the method: (§2) For evaluation of cytotoxicity in vitro cells of different human tumour cell lines were purchased from American Type Culture Collection (Rockville, Md., USA): Human Breast Adenocarcinoma Cell Line MDA-MB-231 (ATCC-HTB-26, Lot 3576799), Human Ovary Adenocarcinoma Cell Line SKOV-3 (ATCC-HTB-77, Lot 3038337) and Human Lung Non-Small Cancer Cell Line A549 (ATCC-CCL-185, Lot 3244171). MDA-MB-231 cells were propagated in MEM culture medium with 2 mM L-glutamine, 10% fetal bovine serum (FBS) and antibiotics. SKOV-3 cells were cultured in McCoy's 5A culture medium, supplemented with 1.5 mM L-glutamine, 10% FBS and antibiotics. All media and supplements were purchased from Sigma-Aldrich Co. (St. Louis, Mi., USA). […]
(§3) The cell cultures in the cultivation plates were allowed to adhere for 24 hour of incubation. […] At the end of the incubation period adherent cells were detached by trypsinization and the number of viable cells was counted using trypan blue exclusion test and a hemocytometer. […] The results were expressed as mean cell number±SE and the differences between control and test series evaluated by means of Student's t-test. The drug cytotoxicity was evaluated based on the extent of cell growth inhibition.
as §1

Assay [3] deals with Human Breast Adenocarcinoma MDA-MB-231 Cell Line. As to the kind of experiment: cells. As for the experimental part: as §2, §3, §1
[4] abbreviates: SK-OV-3, 72 h, SKOV-3, day 3, mean ± SE, read-out: IC50 day 3.
[5] abbreviates: SK-OV-3, 96 h, SKOV-3, day 4, mean ± SE, read-out: IC50 day 4.

SMILES strings stand for the structures. Counter-ions that a name gives are not always drawn. Like-named read-outs stand apart in the source and are kept apart here.

For orientation: IC50 means the concentration at which inhibition is half-maximal. Take `COc1cccc2c1C(=O)c1c(O)c3c(c(O)c1C2=O)C[C@@](O)(C(=O)CO)C[C@@H]3O[C@H]1C[C@H](N)[C@H](O)[C@H](C)O1` [ADRIAMYCIN ®, doxorubicin hydrochloride]: the IC50 in assay [1] (setting [4]) is 85 nM; in assay [1] (setting [5]), 48 nM; in assay [2] (72 h, A549, day 3, mean ± SE, read-out: IC50 day 3) it was 12 nM; in assay [2] (96 h, A549, day 4, mean ± SE, read-out: IC50 day 4), 27 nM; in assay [3] (MDA-MB-231, 72 h, read-out: IC50 day 3) it was 190 nM; in assay [3] (MDA-MB-231, 96 h, read-out: IC50 day 4), 51 nM.

For the compound `CC(=O)O[C@@]12CO[C@@H]1C[C@H](O)[C@@]1(C)C(=O)[C@H](O)C3=C(C)[C@@H](OC(=O)[C@H](O)[C@@H](NC(=O)OC(C)(C)C)c4ccccc4)C[C@@](O)([C@@H](OC(=O)c4ccccc4)[C@H]21)C3(C)C` [Docetaxel, docetaxel], the IC50 was 90.7 nM in assay [1] (setting [4]) and 28.5 nM in assay [1] (setting [5]).
